Consider eight compounds from PubChem BioAssay (NCI).

Where “and” joins values, the source holds several entries; their conditions need not be identical. Identical values can stand only once.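 Five concentrations, 48 hours, 96-well plates. Here, GI50 denotes the concentration required for 50% inhibition of growth. TGI: total growth inhibition.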

Common to all, as to assay: inhibition of tumour cell growth, NCI panel, 48 h
In assay [1] the test system is NCI-H23 lung.
The test system of assay [2] is MALME-3M melanoma.
The test system of assay [3] is NCI-H460 lung.
Assay [4] has as its system SR leukemia.
In assay [5] the test system is OVCAR-3 ovarian.
The test system of assay [6] is RPMI-8226 leukemia.
The subject of assay [7] is UO-31 renal.
For assay [8], the system named is ACHN renal.
Assay [9] concerns SF-539 CNS.
Assay [10] deals with HOP-62 NSCLC.

Turning to `CC(C)N1C(C)[C@@H](c2ccccc2)O[P@@]1(=O)CC1=CCCCC1` (some centres not stated), the TGI in [1], in assay [2], in assay [3], in assay [4], in assay [5] and in [6] was > 100 µM each time. Besides, the TGI in assay [7], in assay [8], in assay [9] and in assay [10] was > 100 µM throughout.

For the compound `CCN(CC)S(=O)(=O)c1cccc(-c2ccc3c(NC(=O)C4CC4)n[nH]c3c2)c1`, the GI50 in [1] is 1.86 µM; in assay [2], 1.46 µM; in assay [3], 2.08 µM; in assay [4], 0.259 µM; in assay [5], 1.9 µM; in assay [6], 1.6 µM. In addition, the GI50 in assay [7] is 3.97 µM; in [8], 3.54 µM; in [9] it was 1.47 µM; in assay [10], 2.54 µM. The TGI in assay [1], in [2], in assay [3], in assay [4], in [5] and in assay [6] was > 6.25 µM throughout. For the same compound, the TGI was > 6.25 µM in [7], > 6.25 µM in assay [8], 5.6 µM in assay [9] and > 6.25 µM in assay [10].

With `O=C(NCc1ccco1)C1CCN(S(=O)(=O)c2ccc(Cl)cc2)CC1`, the GI50 in assay [1] is > 100 µM; in assay [2], > 100 µM; in assay [3], 47.5 µM; in [4], 72.8 µM; in assay [5] it was > 100 µM; in assay [6], 94.9 µM. Besides, the GI50 in [7] is 86.6 µM; in assay [8], > 100 µM; in assay [9] it was > 100 µM; in assay [10], > 100 µM. The TGI in [1], in assay [2], in assay [3], in [4], in assay [5] and in assay [6] was > 100 µM in each case. Further, the TGI in [7], in assay [8], in assay [9] and in assay [10] was > 100 µM in each case.

On to `Cc1ccc(NC(=S)C#N)c(C)c1`, for which the TGI in assay [1] is > 100 µM; in [2], > 94.9 µM; in assay [3], > 100 µM; in assay [4] it was > 100 µM; in assay [5] it was > 100 µM; in [6], 76 µM. Also, the TGI in [7], in [8], in [9] and in assay [10] was > 100 µM in each case.

In the case of `Cc1nc2sc(C(=O)Nc3ccccc3)c(N)c2cc1C(O)c1ccccc1` (configuration not stated), the GI50 in [1] was 0.664 µM; in [2], 0.6 µM; in assay [3], 0.329 µM; in [4], 0.0434 µM; in assay [5], 0.263 µM; in assay [6] it was 0.417 µM. In addition, the GI50 in assay [7] is 0.727 µM; in assay [8] it was 0.512 µM; in [9] it was 0.219 µM; in [10] it was 0.448 µM. The TGI in [1] was > 100 µM; in [2], 34.3 µM; in assay [3], 1.73 µM; in assay [4] it was > 30.5 µM; in assay [5], 3.3 µM; in assay [6], 11.7 µM. The TGI is > 60.9 µM in assay [7], > 60.8 µM in [8], 0.638 µM in [9] and > 53.8 µM in assay [10].

`COc1cc(C2c3cc4c(cc3[C@@H](Nc3ccc([N+](=O)[O-])cc3)C3COC(=O)[C@H]23)OCO4)cc(OC)c1O` (some centres not stated): the GI50 was 0.341 µM in assay [1]; 0.943 µM in assay [2]; 0.0658 µM in assay [3]; 0.045 µM in assay [4]; 0.256 µM in [6]; 0.753 µM in assay [7]. For the same compound, the GI50 in [9] was 0.734 µM. Also, the TGI was 4.12 µM in assay [1]; 10.5 µM in [2]; 2.14 µM in assay [3]; 0.802 µM and 2.18 µM in assay [4]; 17.3 µM in assay [5]; 7.22 µM in assay [6]. Besides, the TGI in assay [7] was 8.76 µM; in assay [8], 2.82 µM; in assay [9], 3.79 µM; in [10] it was 0.947 µM and 2.07 µM.

In the case of `COc1c(B(O)O)cccc1-c1nc2ccc3[nH]ncc3c2c2c1CCCC2`, the GI50 is 2.48 µM in assay [1]; 3.39 µM in assay [2]; 1.43 µM in [3]; 1.13 µM in assay [4]; 3.43 µM in assay [5]; 0.936 µM in [6]. Moreover, the GI50 is 0.262 µM in assay [7], 1.77 µM in assay [8], 0.133 µM in assay [9] and 1.31 µM in assay [10]. The TGI came out at 9.28 µM in assay [1]; 6.86 µM in assay [2]; 11.2 µM in assay [3]; 13.9 µM in [4]; 12.3 µM in [5]; 7.01 µM in assay [6]. Further, the TGI stood at 14.3 µM in assay [7], 16.8 µM in [8], 2.81 µM in assay [9] and 19.6 µM in [10].

`COC(=O)c1c2c(c(C)[n+]([O-])c1C)C(=O)C(NCc1ccc(F)cc1)=CC2=O`: the GI50 in assay [1] was 1.33 µM; in assay [2] it was 0.187 µM; in [3], 0.792 µM; in [4] it was 1.7 µM; in assay [5], 0.319 µM; in [6], 2 µM. In addition, the GI50 was 1.67 µM in assay [7], 1.73 µM in [8], 1.72 µM in assay [9] and 2.4 µM in [10]. Further, the TGI in [1] was 3.79 µM; in [2], 0.493 µM; in assay [3], 5.98 µM; in [4], > 100 µM; in [5] it was 1.11 µM; in assay [6], 6.82 µM. Moreover, the TGI in [7] was 3.77 µM; in assay [8], 4.04 µM; in assay [9], 3.15 µM; in assay [10], 22.5 µM.
